Assay results taken from patent US5300679A, “Substituted propane-phosphinic acid compounds” (Ciba-Geigy Corporation, priority 1987, dated 1994).

Tested on: pyramidal cells of hippocampal slice
Test: Penicilline-induced "epileptic" hippocampal slice preparation
Type: cell-based
Conditions: concentration of 6 μM
Description: The GABAB antagonists of the present invention interact at the GABAB receptor with IC50 values starting from about 10^-7 M (moles/liter) in rat brain cortex membranes. […] The antagonism against baclofen has also been shown in in vitro electrophysiological models, such as the penicilline-induced "epileptic" hippocampal slice preparation, where baclofen, at a concentration of 6 μM inhibits "epileptic"-like discharges of pyramidal cells. The compounds of the invention antagonise the effects of baclofen at concentrations from approximately 10 to approximately 100 μM. In vivo, antagonism has been shown by ionophoresis of baclofen on rat cerebral cortex, and systemic application of antagonists in doses of 10-100 mg/kg. The muscle relaxant effects of baclofen measured in the rotarod model are also antagonized at doses of about 30 mg/kg ip.

NCC(CC(=O)O)c1ccc(Cl)cc1 (stereo not shown) [baclofen] was tested, and the “inhibition of "epileptic"-like discharges of pyramidal cells” value was “inhibits”.
